Source: patent US4866055A, “Cephalosporin derivatives and their crystalline derivatives” (Mochida Pharmaceutical Co., Ltd., priority 1986, dated 1989)
Converted amounts (≈) assume the structure as drawn. Where two headings read alike, the source gives them in different places.

How the values were obtained:
Solubility = type: physicochemical; conditions: trisodium salt, amorphous solid; for parenteral use
Stability (storage) = type: physicochemical
[1] = Acute toxicity, LD50 by the Probit method; conditions: in vivo, iv
Description: Next, LD50 of representative examples of the compounds of the present invention is shown in Table 3 herein LD50 was determined in accordance with the Probit method.

[2] = system: Serratia marcescens IFO 3759; experiment: Antibacterial activity in vitro, agar plate dilution method (MIC); type: cell-based
Description: (§1) Antibacterial activity in vitro was determined in accordance with the agar plate dilution method.
(§2) A platinum loop each of test bacteria (10^6 cells/ml), cultured in Mueller Hinton broth, was inoculated on Mueller Hinton agar plates which contained test compounds at various concentrations. After cultivating at 37° C. for 20 hours, the minimum inhibitory concentration (MIC μg/ml) was determined.

[3] = system: Klebsiella pneumoniae IFO 3317; experiment: as above; type: cell-based
Description: as §1, §2

[4] = system: Pseudomonas aeruginosa 13; experiment: as above; type: cell-based
Description: as §1, §2

[5] = system: Proteus morganii IFO 3848; experiment: as above; type: cell-based; conditions: Morganella morganii
Description: as §1, §2

[6] = system: Escherichia coli NIHJ JC 2; experiment: as above; type: cell-based; conditions: NIHJJC2, 37° C., 20 hours, Mueller Hinton agar
Description: as §1, §2

Escherichia coli 67 = experiment: Protection against systemic infection in mice; type: in vivo, ICR mice; conditions: iv, 168 h, i.p. infection, i.v. compound 1 hour after infection, survival at 1 week
Description: (§3) Protection ability against systemic infection was determined as follows. An aqueous suspension of test bacteria was intraperitoneally injected into 10 four week old ICR mice. One hour after the infection, test compounds were intravenously administered. The number of surviving mice was counted 1 week after injection to determine the dose at which 50% of the test animals were alive (ED50 : mg/kg).

[7] = system: Staphylococcus aureus 242; experiment: Protection against systemic infection in mice; type: in vivo, ICR mice; conditions: 168 h
Description: as §3

[8] = system: Klebsiella pneumoniae IFO 3317; experiment: Protection against systemic infection in mice; type: in vivo, ICR mice; conditions: for ED50: IFO3317, iv, 168 h
Description: as §3

[9] = system: Proteus mirabilis IFO 3849; experiment: Protection against systemic infection in mice; type: in vivo, ICR mice; conditions: IFO3849, iv, 168 h
Description: as §3

[10] = system: Pseudomonas aeruginosa 13; experiment: Protection against systemic infection in mice; type: in vivo, ICR mice; conditions: for ED50: 168 h
Description: as §3

Serratia marcescens 274 = experiment: Protection against systemic infection in mice; type: in vivo, ICR mice; conditions: 168 h
Description: as §3

experimental infection = experiment: Protection of animals from experimental infection (overall); type: in vivo, ICR mice; conditions: Tables 2-a through 2-b, vs reference compound
Description: as §3

[11] = system: bacterial strains except Pseudomonas aeruginosa; experiment: Antibacterial activity in vitro, agar plate dilution method, all strains except Pseudomonas aeruginosa; type: cell-based; conditions: Tables 1-a through 1-b
Description: as §1, §2

[12] = system: Staphylococcus aureus Smith; experiment: Antibacterial activity in vitro, agar plate dilution method (MIC); type: cell-based; conditions: 37° C., 20 hours, Mueller Hinton agar
Description: as §1, §2

[13] = iv, Staphylococcus aureus 242, i.p. infection, i.v. compound 1 hour after infection, survival at 1 week, read-out: ED50
[14] = IFO3759, Serratia marcescens IFO 3759, 37° C., 20 hours, Mueller Hinton agar, read-out: MIC
[15] = IFO3317, Klebsiella pneumoniae IFO 3317, 37° C., 20 hours, Mueller Hinton agar, read-out: MIC
[16] = Pseudomonas aeruginosa 13, 37° C., 20 hours, Mueller Hinton agar, read-out: MIC
[17] = IFO3848, Proteus morganii IFO 3848, 37° C., 20 hours, Mueller Hinton agar, read-out: MIC
[18] = Klebsiella pneumoniae IFO 3317, i.p. infection, i.v. compound 1 hour after infection, survival at 1 week, read-out: ED50
[19] = Proteus mirabilis IFO 3849, i.p. infection, i.v. compound 1 hour after infection, survival at 1 week, read-out: ED50
[20] = iv, Pseudomonas aeruginosa 13, i.p. infection, i.v. compound 1 hour after infection, survival at 1 week, read-out: ED50
[21] = iv, Serratia marcescens 274, i.p. infection, i.v. compound 1 hour after infection, survival at 1 week, read-out: ED50

Compound | LD50 [1] [mg/kg] | MIC [6] [µg/mL] | ED50 (Escherichia coli 67) [mg/kg] | ED50 [7, 13] [mg/kg] | MIC [2, 14] [µg/mL] | MIC [3, 15] [µg/mL] | MIC [4, 16] [µg/mL] | MIC [5, 17] [µg/mL] | MIC [12] [µg/mL] | ED50 [8, 18] [mg/kg] | ED50 [9, 19] [mg/kg] | ED50 [10, 20] [mg/kg] | ED50 (Serratia marcescens 274; [21]) [mg/kg] | other results
Cc1cc(SCC2=C(C(=O)[O-])N3C(=O)[C@@H](NC(=O)/C(=N\OCc4cc(O)c(O)cc4C(=O)[O-])c4csc(N)n4)[C@H]3SC2)n2nc(C(=O)[O-])nc2n1.[Na+].[Na+].[Na+] |  |  |  |  |  |  |  |  |  |  |  |  |  | solubility (Solubility): excellent solubility; stability (Stability (storage); as bulk materials or as parenteral preparations): not necessarily sufficient
CC(C)(O/N=C(\C(=O)N[C@@H]1C(=O)N2C(C(=O)[O-])=C(C[n+]3ccccc3)CS[C@H]12)c1csc(N)n1)C(=O)O [CAZ, Ceftazidime] | > 4000 | 0.2 (≈ 0.366 µM) | 6.48 |  |  |  |  |  |  |  |  |  |  | MIC ([2]; Serratia marcescens, IFO3759, 20 h): ≤ 0.05 µg/mL; MIC ([3]; Klebsiella pneumoniae, IFO3317, 20 h): ≤ 0.05 µg/mL; MIC ([4]; Pseudomonas aeruginosa, 13, 20 h): 1.56 µg/mL (≈ 2.85 µM); MIC ([5]; IFO3848, 20 h): 0.2 µg/mL (≈ 0.366 µM); ED50 ([7]; Staphylococcus aureus, 242, iv): > 100 mg/kg; ED50 ([8]; Klebsiella pneumoniae): 10.6 mg/kg; ED50 ([9]; Proteus mirabilis): 4.36 mg/kg; ED50 ([10]; Pseudomonas aeruginosa, 13, iv): 145 mg/kg; ED50 (Serratia marcescens 274; Serratia marcescens, 274, iv): 3.62 mg/kg
Cn1nnnc1SCC1=C(C(=O)O)N2C(=O)[C@@H](NC(=O)[C@H](O)c3ccccc3)[C@H]2SC1 [CMD, Cefamandole] |  |  |  | 8.94 |  |  |  |  |  |  |  |  |  | 
Cc1cc(SCC2=C(C(=O)O)N3C(=O)[C@@H](NC(=O)/C(=N\OCc4cc(O)c(O)cc4C(=O)O)c4csc(N)n4)[C@H]3SC2)n2nc(C(=O)O)nc2n1 [Compound 1, (6R,7R)-7-[2-(2-amino-4-thiazolyl)-2-[Z-[(2-carboxy-4,5-dihydroxyphenyl)methyl]oxyimino]acetamido]-3-[(2-carboxy-5-methyl-s-triazolo[1,5-a]pyrimidin-7-yl)thiomethyl]-8-oxo-5-thia-1-azabicyclo[4.2.0]-oct-2-ene-2-carboxylic acid] | > 4000 | 0.39 (≈ 0.515 µM) | 1.05 | 7.68 | 0.1 (≈ 0.132 µM) | ≤ 0.05 | 0.1 (≈ 0.132 µM) | 0.39 (≈ 0.515 µM) | 1.56 (≈ 2.06 µM) | 0.27 | 5.07 | 61.8 | 0.77 | potency in protecting the animals from experimental infection relative to the reference compound (experimental infection): evidently more potent than the reference compound; potency relative to the reference compound in vitro [11]: about equipotent to the reference compound; times as potent as Ceftazidime ([4]; MIC, Pseudomonas aeruginosa, vs Ceftazidime): more than 10 times; times as potent as the reference compound ([4]; MIC, Pseudomonas aeruginosa, vs reference compound): more than 10 times; times as potent as the reference compound ([8]; infection with Klebsiella pneumoniae, vs reference compound): more than 10 times; times as potent as the reference compound ([10]; infection with Pseudomonas aeruginosa, vs reference compound): more than 10 times
CC(=O)Oc1cc(C(=O)O)c(CO/N=C(\C(=O)N[C@@H]2C(=O)N3C(C(=O)O)=C(CSc4cc(C)nc5nc(C(=O)O)nn45)CS[C@H]23)c2csc(N)n2)cc1O [Reference compound, (6R,7R)-7-[2-(2-amino-4-thiazolyl)-2-[Z-[(4-acetoxy-2-carboxy-5-hydroxyphenyl)methy]oxyimino]acetamido]-3-[(2-caboxy-5-methyl-s-triazolo[1,5-a]pyrimidin-7-yl)thiomethyl]-8-oxo-5-thia-1-azabicyclo[4.2.0]oct-2-ene-2-carboxylicacid] |  | 0.39 (≈ 0.488 µM) | 7.66 | 12.4 | ≤ 0.05 | ≤ 0.05 | 1.56 (≈ 1.95 µM) | 0.2 (≈ 0.25 µM) | 1.56 (≈ 1.95 µM) | 3.58 | 20.1 | > 500 | 2.56 | 
Cc1cc(SCC2=C(C(=O)O)N3C(=O)[C@@H](NC(=O)/C(=N\OCc4cc(O)c(O)cc4C(=O)O)c4csc(N)n4)[C@H]3SC2)n2nc(C(=O)O)nc2n1 [crystalline hydrated compound, crystalline hydrated (6R,7R)-7-[2-(2-amino-4-thiazol-yl)-2-[Z-[(2-carboxy-4,5-dihydroxyphenyl)methyl]oxyimino]acetamido]-3-[(2-carboxy-5-methyl-s-triazolo[1,5-a]pyrimidin-7-yl)thiomethyl]-8-oxo-5-thia-1-azabicyclo[4.2.0]oct-2-ene-2-carboxylic acid] |  |  |  |  |  |  |  |  |  |  |  |  |  | stability on storage (Stability (storage); crystalline hydrate): increased stability on storage
